Data taken from publication PMC6680932, “Structure–Antioxidant–Antiproliferative Activity Relationships of Natural C7 and C7–C8 Hydroxylated Flavones and Flavanones” (Antioxidants, 2019).

Tests used:
[1] = Stability of flavonoids in DMSO (control), HPLC; format: physicochemical; conditions: 3 h of incubation
Method: (§1) Flavonoids were dissolved (as described in Section 2.4) to the concentration of 100 µg/mL. The solutions corresponding to the solutions before the administration to the cell cultures were incubated in 96-well plates for 3 h and transferred to microtubes containing 400 µL of cold methanol (−20 °C) and kept at −20 °C for 1 h. After centrifugation at 12,000× g for 10 min, samples were analyzed by HPLC. Control experiments were also carried out to determine the stability of flavonoids in DMSO under analogous conditions.

[2] = Stability of flavonoids before administration to the cell cultures (diluted in RPMI 1640/Opti-MEM medium), HPLC; format: physicochemical; conditions: 100 µg/mL, medium with 2 mM L-glutamine, 5% fetal bovine serum, penicillin, streptomycin; 3 h incubation
Method: Tested compounds were dissolved in DMSO and then diluted in a 1:1 (v/v) mixture of RPMI 1640 (HIIET, PAS, Wroclaw, Poland) and Opti-MEM (Gibco, Scotland, UK) medium supplemented with 2 mM L-glutamine (Sigma-Aldrich, Poznan, Poland), 5% fetal bovine serum (GE Healthcare), 100 units/mL penicillin (Polfa Tarchomin S.A., Warsaw, Poland), and 100 µg/mL streptomycin (Sigma-Aldrich, Poznan, Poland). The antiproliferative effects of the flavonoids were examined after 72 h of exposure of the cultured cells to varying concentrations of the tested agents (from 0.1 to 100 μg/mL) using the MTT (for MV-4-11 cells) or SRB assay described below. Cisplatin (chemotherapy drug used to treat a number of cancers) was used as a positive control. The results are presented as an inhibitory concentration 50 (IC50), which is the concentration of the tested agent that inhibits proliferation of the cell population by 50%. IC50 values for each experiment were calculated separately.
as §1

[3] = ABTS radical cation decolorization assay; conditions: 6 min incubation, 734 nm; mean ± SD
Method: (§2) The antioxidant capacity of flavonoids was measured in three separate tests: ABTS, DPPH, and ferric ion reducing antioxidant power (FRAP) assays (ABTS, DPPH, and FRAP reagents from Sigma-Aldrich). All tested compounds were dissolved in DMSO. All determinations were performed in triplicate. Standard curves were prepared for all assays using different concentrations of Trolox (6-hydroxy-2,5,7,8-tetramethylchroman-2-carboxylic acid) (Sigma-Aldrich). Trolox is a water-soluble analogue of vitamin E with high antioxidant activity, commonly used as a control and a reference in studies of antioxidant activity. The results were expressed as the equivalent of μmol Trolox per μmol of the test compound. The absorbance was measured using a UV-2401 PC spectrophotometer (Shimadzu, Kyoto, Japan). Concentrations of the tested samples were in the range from 50 µg/mL to 10 mg/mL.
The radical cation scavenging capacity of the tested compounds was examined against ABTS^+ (2,2’-azino-bis(3-ethylbenzo-thiazoline-6-sulfonic acid) according to the procedure described by Re et al. with some modifications. The test sample (30 μL) of known concentration was mixed in a polystyrene cuvette with 3 mL of ABTS solution with a measured absorption of 0.700 at a wavelength of λ = 734 nm. After 6 min of incubation, the absorption of samples was recorded. The ABTS reagent was freshly prepared before each experiment.

[4] = DPPH free radical scavenging activity assay; conditions: 10 min, 517 nm; mean ± SD
Method: as §2
The DPPH (2,2-diphenyl-1-picrylhydrazyl) radical scavenging activity of samples was determined according to the method described by Yen and Chen with some modifications. Samples (0.1 mL) of known concentration were mixed in polystyrene cuvettes with 2 mL of 0.04 mM DPPH in ethanol and 0.4 mL of ethanol. The absorbance was measured after 10 min at λ = 517 nm. The DPPH reagent was freshly prepared before each experiment.

compound observed after incubation in DMSO [1]	stability after dilution with 1:1 RPMI 1640/Opti-MEM medium [2]	SMILES	TEAC ABTS [3]	TEAC DPPH [4]
over 99%	stable	O=C1C[C@@H](c2ccc(O)cc2)Oc2cc(O)cc(O)c21 [Compound 6, naringenin]	0.347 ± 0.020 µmol trolox per µmol of tested	0.017 ± 0.002 µmol trolox per µmol of tested
over 99%	complete decomposition	O=c1cc(-c2ccc(O)cc2)oc2c(O)c(O)cc(O)c12 [Compound 10, 8-hydroxyapigenin]	10.184 ± 1.768 µmol trolox per µmol of tested	5.560 ± 0.121 µmol trolox per µmol of tested
over 99%	stable	O=c1cc(-c2ccc(O)cc2)oc2cc(O)cc(O)c12 [Compound 2, apigenin]	0.250 ± 0.014 µmol trolox per µmol of tested	0.005 ± 0.002 µmol trolox per µmol of tested
